{"source": "patent US20180071242A1", "about": "“SUBSTITUTED ACYLANILIDES AND METHODS OF USE THEREOF” (University of Tennessee Research Foundation, priority 2006, published 2018)", "key": {"Pharmacokinetics in dogs": {"experiment": "Pharmacokinetics in dogs", "assay_type": "in vivo", "settings": "beagle dogs", "procedure": "In order to determine the pharmacokinetics of the S-isomer of the compound of formula (I) [S-(I)], the compound was administered to beagle dogs perorally, and circulating plasma levels, terminal elimination half-life (t1/2), total body clearance (CL), terminal volume distribution (Vz) and absolute bioavailability (F %) (Table 4) were determined."}, "[1]": {"biological_target": "T1, Recombinant androgen receptor ligand binding domain (AR LBD) (Homo sapiens, UniProt P10275)", "T1 sequence (P10275 669-900 limits assumed)": "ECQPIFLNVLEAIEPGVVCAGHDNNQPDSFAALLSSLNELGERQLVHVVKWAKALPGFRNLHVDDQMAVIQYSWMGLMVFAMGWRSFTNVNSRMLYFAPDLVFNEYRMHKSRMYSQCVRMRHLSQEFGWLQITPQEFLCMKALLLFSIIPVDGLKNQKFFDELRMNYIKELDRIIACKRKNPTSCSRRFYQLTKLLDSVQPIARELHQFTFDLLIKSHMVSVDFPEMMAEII", "experiment": "In vitro competitive radioligand binding assay with [3H]mibolerone"}, "[2]": {"tested_on": "DMD (−/−) UTRN (−/−) mice", "experiment": "Double knockout mouse model of Duchenne muscular dystrophy", "settings": "10 mg/kg/day, data cumulative across the SARM groups"}, "[3]": {"tested_on": "DMD (−/−) UTRN (+/+) mice", "experiment": "mdx mouse model of Duchenne muscular dystrophy"}, "[4]": {"experiment": "Metabolic stability measured in human liver microsomes", "assay_type": "in vitro ADME", "settings": "for microsomal CLint at 0.6 μM: human, pH 7.4, human liver microsomes", "procedure": "Metabolic stability assays were performed in order to assess the in vitro half-life of the S-isomer of compound of formula (I) [S-(I)] when incubated with human liver microsomes. Intrinsic clearance values were extrapolated. Permeability of the compound across human, intestinal epithelial monolayers (Caco-2 cells) was assessed as a measure of intestinal permeability as well as an indicator of efflux potential. Caco-2 cells are often used as an early screening surrogate for oral bioavailability. Microsomal half-life can be converted to in vitro clearance values as a means to predict hepatic intrinsic clearance. Intrinsic clearance is defined as the functional ability of the liver to metabolize a drug or other compound.\nS-(I) in this study was incubated at a final concentration of 0.6 μM. Microsome reactions were performed under either Phase I or “Phase I and II” conditions, where indicated. Compound stocks (10 mM ACN) were initially diluted to a concentration of 60 μM (in 60% ACN/H2O) resulting in a “working stock” solution of 100×. Human liver microsomes were utilized at a final concentration of […]. Duplicate wells were used for each time point (0, 6, 10, 30, and 60 minutes). Reactions were carried out at 37° C. in a shaking water bath, and the final concentration of solvent was kept constant at 0.6%. The final volume for each reaction was 600 μl, comprised of […] of 100 mM KPO4 buffer, (pH 7.4); 12.6 μl of HLM (from a 20 mg/ml stock); 6 μl of 100× “working stock” drug compound, and 126 μl of NRS “master mix” solution. At each time point, 100 μl of reaction was removed and added to a sample well containing 100 μl of ice-cold, 100% ACN (plus internal standards), to stop the reaction. The NRS “master mix” is a solution of glucose 6-phosphate dehydrogenase, NADP^+, MgCl2, and glucose 6-phosphate, prepared per manufacturer's instructions (BD Biosciences, Waltham, Mass.). Each […] stock of NRS “master mix” solution contains 3.8 ml H2O, 1.0 ml solution “A” (Cat. #461220), and 0.2 ml solution “B” (Cat. #461200). Human liver microsomes (lot #0610279, Xenotech Corp.) represented a pool of 60 donors.\nSamples were centrifuged at 3,000 rpm for 10 minutes at 4° C. to remove debris and precipitated protein. […] The concentration of parent drug remaining in each well (expressed as percent remaining versus Time ‘0’, at the beginning of the reaction) was measured by LC/MS, as detailed below.\nAll samples were analyzed on the MDS/Sciex API4000 Q Trap system with electrospray ionization (ESI) in the positive or negative SIM mode, depending on the compounds. […] The percentage of parent drug compound remaining after each time point was determined relative to the initial measured concentration at the beginning of the reaction (T0 min). […]"}, "[5]": {"settings": "castrated mdx mice, 10 mg/kg/day subcutaneously, 12 weeks"}, "[6]": {"settings": "castrated mdx mice, 10 mg/kg/day subcutaneously, 12 weeks, 10 mg/kg/day"}}, "note": "“Also recorded” adds a separate entry of the source. Read-outs that look alike come from different tables or passages of the source.", "data": [{"compound": "C[C@](O)(COc1ccc(C#N)cc1)C(=O)Nc1ccc(C#N)c(Cl)c1", "note": "[S-(I), (S)—N-(3-chloro-4-cyanophenyl)-3-(4-cyanophenoxy)-2-hydroxy-2-methylpropanamide]", "values": [{"measurement": "Absorption (in words)", "setting": "Pharmacokinetics in dogs; perorally", "value": "rapidly and completely absorbed"}, {"measurement": "bioavailability", "setting": "Pharmacokinetics in dogs; dog, plasma, oral, perorally, read-out: F%, absolute bioavailability", "value": 96.2, "unit": "%"}, {"measurement": "clearance", "setting": "Pharmacokinetics in dogs; dog, plasma, oral, read-out: CL, total body clearance", "value": "1.68 ± 0.13", "unit": "mL/min/kg"}, {"measurement": "Vd", "setting": "Pharmacokinetics in dogs; dog, plasma, oral, read-out: Vz, terminal volume distribution", "value": "1.52 ± 0.142", "unit": "L/kg"}, {"measurement": "half-life", "setting": "Pharmacokinetics in dogs; dog, plasma, oral, read-out: t½, terminal elimination half-life (converted)", "value": "10.4 ± 0.5", "unit": "h"}, {"measurement": "Ki", "setting": "[1]", "value": 36.9, "unit": "nM"}, {"measurement": "Ability to be ambulatory (in words)", "setting": "[2]", "value": "enhanced the ability of these mice to be ambulatory"}, {"measurement": "Deterioration of body weight (in words)", "setting": "[2]", "value": "delayed the deterioration"}, {"measurement": "Deterioration of grip strength (in words)", "setting": "[2]", "value": "delayed the deterioration"}, {"measurement": "Deterioration of lean mass (in words)", "setting": "[2]", "value": "delayed the deterioration"}, {"measurement": "Fat mass (in words)", "setting": "[3]; [5]", "value": "decrease"}, {"measurement": "Grip strength (in words)", "setting": "[3]; [5]", "value": "significant increase"}, {"measurement": "Body weight (in words)", "setting": "[3]; [6]", "value": "increased; also recorded: significant increase"}, {"measurement": "Lean [muscle] mass (in words)", "setting": "[3]; [6]", "value": "increased; also recorded: significant increase"}, {"measurement": "Body weight (in words)", "setting": "[3]; intact mdx mice", "value": "increased"}, {"measurement": "Lean mass (in words)", "setting": "[3]; intact mdx mice", "value": "increased"}, {"measurement": "Half Life (minutes) Phase I only", "setting": "[4]; Phase I only", "value": "Stable"}, {"measurement": "microsomal CLint at 0.6 μM", "setting": "[4]; Phase I + II, read-out: CLint (μl/min/mg) Phase I + II", "value": 2, "unit": "µL/min/mg"}, {"measurement": "microsomal CLint at 0.6 μM", "setting": "[4]; Phase I only, read-out: CLint (μl/min/mg) Phase I only", "value": "< 1", "unit": "µL/min/mg"}, {"measurement": "half-life at 0.6 μM", "setting": "[4]; pH 7.4, Phase I + II", "value": 5.81, "unit": "h"}]}]}
